{"source": "patent US10105357B2", "about": "“Indication of antibiotic drugs for preparation of cancer inhibition pharmaceutical composition” (LAUNX BIOMEDICAL CO., LTD., priority 2014, dated 2018)", "key": {"[1]": {"system": "AsPC-1", "test": "Cell viability analysis, pancreatic cancer AsPC-1", "format": "cell-based, human"}, "[2]": {"system": "A375 (Amelanotic Melanoma)", "test": "Cell viability analysis, skin cancer A375", "format": "cell-based, human"}, "[3]": {"system": "HCT116 (p53+) (Colorectal Carcinoma)"}, "[4]": {"system": "NIH: OVCAR-3", "test": "Cell viability analysis, ovarian cancer NIH: OVCAR-3", "format": "cell-based, human"}, "[5]": {"system": "LoVo (Colorectal Adenocarcinoma)", "test": "Cell viability analysis, colon cancer LoVo", "format": "cell-based, human"}, "[6]": {"system": "SAS (Tongue squamous cell carcinoma)", "test": "Cell viability analysis, tongue cancer SAS", "format": "cell-based, human"}, "[7]": {"system": "HepG2 (Hepatocellular Carcinoma)", "test": "Cell viability analysis, hepatic cancer HepG2", "format": "cell-based, human"}, "[8]": {"system": "AGS (Gastric Adenocarcinoma)", "test": "Cell viability analysis, gastric cancer AGS", "format": "cell-based, human"}, "[9]": {"system": "T24", "test": "Cell viability analysis, bladder cancer T24", "format": "cell-based, human"}, "[10]": {"system": "HI650 (Lung Adenocarcinoma)", "test": "Cell viability analysis, lung cancer HI650", "format": "cell-based, human"}, "[11]": {"system": "A549 (Lung Adenocarcinoma)", "test": "Cell viability analysis, lung cancer A549", "format": "cell-based, human"}, "[12]": {"system": "Hep3B (hepatocellular carcinoma)", "test": "Cell viability analysis, hepatic cancer Hep3B", "format": "cell-based, human"}, "[13]": {"system": "HeLa (Cervix Adenocarcinoma)", "test": "Cell viability analysis, cervical cancer HeLa", "format": "cell-based, human"}, "[14]": {"system": "786-O (Renal adenocarcinoma)", "test": "Cell viability analysis, renal cancer 786-O", "format": "cell-based, human"}, "[15]": {"system": "MKN-45 (Gastric Adenocarcinoma)", "test": "Cell viability analysis, gastric cancer MKN-45", "format": "cell-based, human"}, "[16]": {"system": "TOV-21G", "test": "Cell viability analysis, ovarian cancer TOV-21G", "format": "cell-based, human"}, "[17]": {"system": "TSGH-8301 (Urinary Bladder Carcinoma)", "test": "Cell viability analysis, bladder cancer TSGH-8301", "format": "cell-based, human"}, "[18]": {"system": "MDA-MB-231 (Mammary Gland, Adenocarcinoma)", "test": "Cell viability analysis, breast cancer MDA-MB-231", "format": "cell-based, human"}, "[19]": {"system": "PC3 (p53−) (Prostate Adenocarcinoma)", "test": "Cell viability analysis, prostate cancer PC3", "format": "cell-based, human"}, "[20]": {"system": "MCF7 (Mammary Gland, Adenocarcinoma)", "test": "Cell viability analysis, breast cancer MCF7", "format": "cell-based, human"}, "[21]": {"system": "C-33A (Cervical carcinoma)", "test": "Cell viability analysis, cervical cancer C-33A", "format": "cell-based, human"}, "[22]": {"system": "BCC (basal cell carcinoma)", "test": "Cell viability analysis, skin cancer BCC", "format": "cell-based, human"}, "[23]": {"system": "U-2OS", "test": "Cell viability analysis, osteosarcoma U-2OS", "format": "cell-based, human"}, "[24]": {"system": "BxPC-3", "test": "Cell viability analysis, pancreatic cancer BxPC-3", "format": "cell-based, human"}}, "note": "Like-named read-outs stand apart in the source and are kept apart here.", "data": [{"smiles": "CC[C@H](C)[C@H]1O[C@]2(CC[C@@H]1C)C[C@@H]1C[C@@H](C/C=C(\\C)[C@@H](O[C@H]3C[C@H](OC)[C@@H](O[C@H]4C[C@H](OC)[C@@H](O)[C@H](C)O4)[C@H](C)O3)[C@@H](C)/C=C/C=C3\\CO[C@@H]4[C@H](O)C(C)=C[C@@H](C(=O)O1)[C@]34O)O2", "note": "[Ivermectin]", "values": [{"measurement": "The results of antibiotic drug inhibiting cancer cell lines (cell viability analysis), AsPC-1", "setting": "[1]; AsPC-1, repeated experiment", "value": 41.75}, {"measurement": "The results of antibiotic drug inhibiting cancer cell lines (cell viability analysis), A375", "setting": "[2]; A375, repeated experiment", "value": 44.36}, {"measurement": "viability", "setting": "[3]", "value": 62.7, "unit": "%"}, {"measurement": "The results of antibiotic drug inhibiting cancer cell lines (cell viability analysis), NIH-OVCAR-3", "setting": "[4]; NIH-OVCAR-3, repeated experiment", "value": 61.85}, {"measurement": "The results of antibiotic drug inhibiting cancer cell lines (cell viability analysis), LoVo", "setting": "[5]; LoVo, repeated experiment", "value": 53.26}, {"measurement": "The results of antibiotic drug inhibiting cancer cell lines (cell viability analysis), SAS", "setting": "[6]; SAS, repeated experiment", "value": 41.52}, {"measurement": "The results of antibiotic drug inhibiting cancer cell lines (cell viability analysis), HepG2", "setting": "[7]; HepG2, repeated experiment", "value": 65.3}, {"measurement": "The results of antibiotic drug inhibiting cancer cell lines (cell viability analysis), AGS", "setting": "[8]; AGS, repeated experiment", "value": 79.82}, {"measurement": "The results of antibiotic drug inhibiting cancer cell lines (cell viability analysis), T24", "setting": "[9]; T24, repeated experiment", "value": 101.7}, {"measurement": "The results of antibiotic drug inhibiting cancer cell lines (cell viability analysis), H1650", "setting": "[10]; H1650, repeated experiment", "value": 50.2}, {"measurement": "The results of antibiotic drug inhibiting cancer cell lines (cell viability analysis), A549", "setting": "[11]; A549, repeated experiment", "value": 33.35}, {"measurement": "The results of antibiotic drug inhibiting cancer cell lines (cell viability analysis), Hep3B", "setting": "[12]; Hep3B, repeated experiment", "value": 63.22}, {"measurement": "The results of antibiotic drug inhibiting cancer cell lines (cell viability analysis), HeLa", "setting": "[13]; HeLa, repeated experiment", "value": 58.86}, {"measurement": "The results of antibiotic drug inhibiting cancer cell lines (cell viability analysis), 786-O", "setting": "[14]; 786-O, repeated experiment", "value": 55.69}, {"measurement": "The results of antibiotic drug inhibiting cancer cell lines (cell viability analysis), MKN-45", "setting": "[15]; MKN-45, repeated experiment", "value": 102.1}, {"measurement": "The results of antibiotic drug inhibiting cancer cell lines (cell viability analysis), TOV-21G", "setting": "[16]; TOV-21G, repeated experiment", "value": 42.41}, {"measurement": "The results of antibiotic drug inhibiting cancer cell lines (cell viability analysis), TSGH-8301", "setting": "[17]; TSGH-8301, repeated experiment", "value": 63.74}, {"measurement": "The results of antibiotic drug inhibiting cancer cell lines (cell viability analysis), MDA-MB231", "setting": "[18]; MDA-MB231, repeated experiment", "value": 83.03}, {"measurement": "The results of antibiotic drug inhibiting cancer cell lines (cell viability analysis), PC-3", "setting": "[19]; PC-3, repeated experiment", "value": 27.87}, {"measurement": "The results of antibiotic drug inhibiting cancer cell lines (cell viability analysis), MCF-7", "setting": "[20]; MCF-7, repeated experiment", "value": 48.13}, {"measurement": "The results of antibiotic drug inhibiting cancer cell lines (cell viability analysis), C-33A", "setting": "[21]; C-33A, repeated experiment", "value": 85.05}, {"measurement": "The results of antibiotic drug inhibiting cancer cell lines (cell viability analysis), BCC", "setting": "[22]; BCC, repeated experiment", "value": 33.64}, {"measurement": "The results of antibiotic drug inhibiting cancer cell lines (cell viability analysis), U2OS", "setting": "[23]; U2OS, repeated experiment", "value": 50.69}, {"measurement": "The results of antibiotic drug inhibiting cancer cell lines (cell viability analysis), BxPC-3", "setting": "[24]; BxPC-3, repeated experiment", "value": 65.76}]}, {"smiles": "CC(=O)Oc1ccccc1C(=O)Nc1ncc([N+](=O)[O-])s1", "note": "[Nitazoxanide (Alinia, Annita)]", "values": [{"measurement": "The results of antibiotic drug inhibiting cancer cell lines (cell viability analysis), AsPC-1", "setting": "[1]", "value": 84.09}, {"measurement": "The results of antibiotic drug inhibiting cancer cell lines (cell viability analysis), A375", "setting": "[2]", "value": 94.2}, {"measurement": "viability", "setting": "[3]", "value": 98.4, "unit": "%"}, {"measurement": "The results of antibiotic drug inhibiting cancer cell lines (cell viability analysis), NIH-OVCAR-3", "setting": "[4]", "value": 104.5}, {"measurement": "The results of antibiotic drug inhibiting cancer cell lines (cell viability analysis), LoVo", "setting": "[5]", "value": 94.76}, {"measurement": "The results of antibiotic drug inhibiting cancer cell lines (cell viability analysis), SAS", "setting": "[6]", "value": 78.89}, {"measurement": "The results of antibiotic drug inhibiting cancer cell lines (cell viability analysis), HepG2", "setting": "[7]", "value": 107.5}, {"measurement": "The results of antibiotic drug inhibiting cancer cell lines (cell viability analysis), AGS", "setting": "[8]", "value": 99.04}, {"measurement": "The results of antibiotic drug inhibiting cancer cell lines (cell viability analysis), T24", "setting": "[9]", "value": 76.47}, {"measurement": "The results of antibiotic drug inhibiting cancer cell lines (cell viability analysis), H1650", "setting": "[10]", "value": 85.86}, {"measurement": "The results of antibiotic drug inhibiting cancer cell lines (cell viability analysis), A549", "setting": "[11]", "value": 95.57}, {"measurement": "The results of antibiotic drug inhibiting cancer cell lines (cell viability analysis), Hep3B", "setting": "[12]", "value": 106.8}, {"measurement": "The results of antibiotic drug inhibiting cancer cell lines (cell viability analysis), HeLa", "setting": "[13]", "value": 84.93}, {"measurement": "The results of antibiotic drug inhibiting cancer cell lines (cell viability analysis), 786-O", "setting": "[14]", "value": 44.2}, {"measurement": "The results of antibiotic drug inhibiting cancer cell lines (cell viability analysis), MKN-45", "setting": "[15]", "value": 97.28}, {"measurement": "The results of antibiotic drug inhibiting cancer cell lines (cell viability analysis), TOV-21G", "setting": "[16]", "value": 62.56}, {"measurement": "The results of antibiotic drug inhibiting cancer cell lines (cell viability analysis), TSGH-8301", "setting": "[17]", "value": 87.18}, {"measurement": "The results of antibiotic drug inhibiting cancer cell lines (cell viability analysis), MDA-MB231", "setting": "[18]", "value": 91.23}, {"measurement": "The results of antibiotic drug inhibiting cancer cell lines (cell viability analysis), PC-3", "setting": "[19]", "value": 90.27}, {"measurement": "The results of antibiotic drug inhibiting cancer cell lines (cell viability analysis), MCF-7", "setting": "[20]", "value": 79.28}, {"measurement": "The results of antibiotic drug inhibiting cancer cell lines (cell viability analysis), C-33A", "setting": "[21]", "value": 103.9}, {"measurement": "The results of antibiotic drug inhibiting cancer cell lines (cell viability analysis), BCC", "setting": "[22]", "value": 76}, {"measurement": "The results of antibiotic drug inhibiting cancer cell lines (cell viability analysis), U2OS", "setting": "[23]", "value": 83.33}, {"measurement": "The results of antibiotic drug inhibiting cancer cell lines (cell viability analysis), BxPC-3", "setting": "[24]", "value": 89.5}]}]}
